Measured values published in patent publication US8673376B2, “Polyphenol-containing composition for oral administration or external use and use of same” (Biotherapy Development Research Center Co., Ltd., priority 2009, dated 2014).

How the values were obtained:
[1] = test system: Human melanoma cells (HMVII); experiment: Melanin production inhibition test, HMVII cells; format: cell-based; settings: control = 100
Source text: Human melanoma cells (HMVII) were the third or higher passage cultured in a culture solution of a Ham F-12 culture medium (manufactured by Nissui Pharmaceutical Co., Ltd.) containing 10% FBS, mixed with 0.5% penicillin-streptomycin (manufactured by Gibco). The test samples were the freeze-dried products of the hot water extract obtained in Preparation 1 (1) and the fractions eluted with 10% and 50% aqueous ethanol solutions obtained in Preparation 1 (2). […] The culture medium was removed, washed with PBS, and then 100 μL of a trypsin EDTA solution was added thereby removing the cells from the plate, and 900 μL of 1N sodium hydroxide aqueous solution was added. The cells were allowed to stand at room temperature for 20 to 24 hours thereby causing cytolysis, and then the melanin content was measured at an absorbance of 475 nm.

[2] = test system: Mouse melanoma cells B16F1; experiment: Melanin production inhibition test, B16F1 cells; format: cell-based; settings: control = 100; for Melanin production rate: α-MSH 100 ng/mL, 72 hours
Experimental: Mouse melanoma cells B16F1 were the third or higher passage cultured in Dulbecco's Modified Eagle Medium (D-MEM) containing 10% FBS (manufactured by Nissui Pharmaceutical Co., Ltd.) mixed with 0.5% penicillin-streptomycin (manufactured by Gibco).
(§1) The test samples were the freeze-dried products of the hot water extract obtained in Preparation 1 (1) and the fractions eluted with 10% and 50% aqueous ethanol solutions obtained in Preparation 1 (2).
(a) Amount of Melanin Production • 960 μL of mouse cells B16F1 cultured in D-MEM culture medium containing 10% FBS was seeded on a 24-well plate to give a final concentration of 1.0×10^5 cells/well (seeding concentration: 1.04×10^5 cells/mL), and cultured for 24 hours in a CO^2 incubator. 20 μL of melanin production hormone (α-MSH) adjusted to a final concentration of 100 ng/mL (addition concentration: 5.0 μg/mL) and 20 μL of test sample adjusted to 10 μg/mL (500 μg/mL) or 100 μg/mL (5000 μg/mL) were added, and cultured for 72 hours. The culture medium was removed, washed with PBS, and then 100 μL of a trypsin EDTA solution was added thereby removing the cells from the plate, and 900 μL of 1N sodium hydroxide aqueous solution was added. The cells were allowed to stand at room temperature for 20 to 24 hours thereby causing cytolysis, and then the melanin content was measured at an absorbance of 475 nm.

tyrosinase = experiment: Tyrosinase activity inhibition test; format: biochemical; settings: DOPA substrate, control = 100
Experimental: as §1
0.5 mL of substrate (DOPA) solution adjusted to the final concentration of 0.03% with a phosphoric acid buffer was mixed with 0.5 mL of test sample solution prepared using a phosphoric acid buffer, and cooled on ice. 0.5 mL of tyrosinase solution adjusted to the final concentration of 45 U/mL with a phosphoric acid buffer was added to the mixture, incubated at 25° C. for 5 minutes, and then the absorbance at 475 nm was measured. The reaction rate (activity) of tyrosinase was calculated from the difference of the absorbance. In order to eliminate the influence of the color of the test sample, the absorbance of a mixture containing a phosphoric acid buffer in place of the tyrosinase solution was measured, thereby correcting the absorbance.

O=C1O[C@H]([C@@H](O)CO)C(O)=C1O [Ascorbic acid]
Melanin production rate after correction of survival rate ([1]; 10 μg/mL): 102.74% | Melanin production rate after correction of survival rate ([1]; 100 μg/mL): 95.60% | Melanin production rate ([1]; 100 μg/mL, α-MSH 100 ng/mL, 72 hours): 94.76%

OC[C@H]1O[C@@H](Oc2ccc(O)cc2)[C@H](O)[C@@H](O)[C@@H]1O [β arbutin]
Melanin production rate after correction of survival rate ([2]; 10 μg/mL): 83.48% | Melanin production rate ([2]; 10 μg/mL): 95.41% | Melanin production rate after correction of survival rate ([2]; 100 μg/mL): 82.52% | Melanin production rate ([2]; 100 μg/mL): 93.76%

O=c1cc(CO)occ1O [Kojic acid]
Reaction rate of tyrosinase (tyrosinase; 10 μg/mL): 42.35% | Reaction rate of tyrosinase (tyrosinase; 100 μg/mL): 8.71%
